From patent US7166580B2, “Compounds which inhibit leukocyte adhesion mediated by VLA-4” (Elan Pharmaceuticals, Inc., priority 1997, dated 2007)
Square brackets hold non-standard residues; d marks the D form. Peptide text beside a SMILES is read from it. * marks the point of attachment. Dip = N[C@H](C(=O)O)C(c1ccccc1)c1ccccc1; Tos = Cc1ccc(S(=O)(=O)*)cc1; OBn = c1ccc(CO*)cc1; Sar = CNCC(=O)O

Row | SMILES | melting point
1 | Cc1ccc(S(=O)(=O)N[C@H](C(=O)N[C@@H](Cc2ccccc2)C(=O)OCc2ccccc2)C(c2ccccc2)c2ccccc2)cc1 [Example 25, N-(Toluene-4-sulfonyl)-L-diphenylalanyl-L-phenylalanine Benzyl Ester] (Tos-[Dip]-Phe-OBn) | 79 to 84 °C
2 | Cc1ccc(S(=O)(=O)N(C)C(C(=O)N[C@@H](Cc2ccccc2)C(=O)OCc2ccccc2)c2ccccc2)cc1 (mixture of isomers) [Example 30, N-(Toluene-4-sulfonyl)-N-methyl-D,L-phenylglycyl-L-phenylalanine Benzyl Ester] | 46 to 49 °C
3 | Cc1ccc(S(=O)(=O)NCC(=O)N[C@@H](Cc2ccccc2)C(=O)O)cc1 [Example 3, N-(Toluene-4-sulfonyl)glycyl-L-phenylalanine] (Tos-Gly-Phe-OH) | 157 to 161 °C
4 | COC(=O)c1ccccc1S(=O)(=O)NCC(=O)N[C@@H](Cc1ccccc1)C(=O)O [Example 6, N-(2-Methoxycarbonylbenzenesulfonyl)-glycyl-L-phenylalanine] | 140 to 143 °C
5 | Cc1ccc(S(=O)(=O)N[C@@H](C)C(=O)N[C@@H](Cc2ccccc2)C(=O)OCc2ccccc2)cc1 [Example 20, N-(Toluene-4-sulfonyl)-L-alanyl-L-phenylalanine Benzyl Ester] | 109 to 110 °C
6 | Cc1ccc(S(=O)(=O)NC(C(=O)N[C@@H](Cc2ccccc2)C(=O)OCc2ccccc2)c2ccccc2)cc1 (mixture of isomers) [Example 29, N-(Toluene-4-sulfonyl)-D,L-phenylglycyl-L-phenylalanine Benzyl Ester] | 148 to 150 °C
7 | CCOC(=O)[C@H](Cc1ccccc1)NC(=O)C(NS(=O)(=O)c1ccc(C)cc1)c1ccccc1 (mixture of isomers) [Example 22, N-(Toluene-4-sulfonyl)-D,L-phenylglycyl-L-phenylalanine Ethyl Ester] | 145 to 147 °C
8 | Cc1ccc(S(=O)(=O)N[C@@H](C)C(=O)N[C@@H](Cc2ccccc2)C(=O)O)cc1 [Example 5, N-(Toluene-4-sulfonyl)-L-alanyl-L-phenylalanine] | 105 to 108 °C
9 | Cc1ccc(S(=O)(=O)N(C)CC(=O)N[C@@H](Cc2ccccc2)C(=O)OCc2ccccc2)cc1 [Example 21, N-(Toluene-4-sulfonyl)sarcosyl-L-phenylalanine Benzyl Ester] (Tos-[Sar]-Phe-OBn) | 80 to 82 °C
10 | Cc1ccc(S(=O)(=O)NC(C(=O)N[C@@H](Cc2ccccc2)C(=O)O)c2ccccc2)cc1 (mixture of isomers) [Example 9, N-(Toluene-4-sulfonyl)-D,L-phenylglycyl-L-phenylalanine] | 150 to 152 °C
11 | Cc1ccc(S(=O)(=O)N(C)CC(=O)N[C@@H](Cc2ccccc2)C(=O)O)cc1 [Example 4, N-(Toluene-4-sulfonyl)sarcosyl-L-phenylalanine] (Tos-[Sar]-Phe-OH) | 128 to 130 °C
